Laboratory results as given in ChEMBL document CHEMBL3124856, “Design, synthesis, and pharmacological evaluation of a novel series of pyridopyrazine-1,6-dione γ-secretase modulators” (J Med Chem, 2014).
pIC50: −log10 of the molar value. Active and inactive are the calls of the source. The calls are words filed in the database; no cut-off is given here.

Tests used:
[1] = test system: MDR1 (human); assay: Efflux ratio of permeability in MDCK cells expressing human MDR1; format: ADME, cell-based, Canis lupus familiaris; details: dog
[2] = Apparent intrinsic clearance in human liver microsomes; format: ADME; details: read-out: CLH(app)
[3] = molecular target: Gamma-secretase; assay: Modulation of gamma-secretase (unknown origin) expressed in CHO cells overexpressing human wild type APP assessed as reduction of amyloid beta 42 level after 24 hrs by ELISA; format: cell-based
[4] = Apparent intrinsic clearance in rat liver microsomes; format: ADME; details: read-out: CLH(app)
[5] = Bioavailability in rat at 1 mg/kg, iv and 5 mg/kg, po; format: ADME, organism-based; details: in vivo
[6] = molecular target: T1, Gamma-secretase (Homo sapiens) (UniProt Q96BI3+Q9NZ42+Q8WW43+P49768+Q92542+P49810); assay: Binding affinity to gamma-secretase in human HeLa cells assessed as labeling of PS1-NTF at 5 uM by Western blot analysis; format: cell-based
[7] = molecular target: T1, Gamma-secretase (Homo sapiens); assay: Binding affinity to gamma-secretase in human HeLa cells assessed as labeling of PS1-NTF at 5 uM by Western blot analysis in presence of 2-[2-(7-Fluoronaphthalen-1-yloxy)ethyl]-7-(4-methyl-1H-imidazol-1-yl)-3,4-dihydro-1H-pyrido[1,2-a]pyrazine-1,6(2H)-dione; format: cell-based
[8] = molecular target: T1, Gamma-secretase (Homo sapiens); assay: Binding affinity to gamma-secretase in human HeLa cells assessed as labeling of PS1-NTF at 5 uM by Western blot analysis in presence of GSI-L458; format: cell-based
[9] = molecular target: T1, Gamma-secretase (Homo sapiens); assay: Binding affinity to gamma-secretase in human HeLa cells assessed as labeling of PS1-NTF at 5 uM by Western blot analysis in presence of (S)-1-(1-(4-fluorophenyl)ethyl)-3-(3-methoxy-4-(4-methyl-1H-imidazol-1-yl)benzylidene)piperidin-2-one; format: cell-based
[10] = molecular target: Gamma-secretase; assay: Inhibition of gamma-secretase in human HeLa cells assessed as reduction of amyloid beta 42 level preincubated for 30 mins measured after 1.5 hrs by Western blotting analysis; format: cell-based

Structure (SMILES): COc1cc2c(=O)n(CCc3cccc(Cl)c3)ccc2cc1-n1cnc(C)c1
- efflux ratio [1]: 1
- CLint scaled [2]: 32.7 mL/min/kg
- pIC50 [3]: < 4.80

Structure (SMILES): Cc1cn(-c2ccc3n(c2=O)CCN(CCOc2ccccc2C(F)(F)F)C3=O)cn1
- efflux ratio [1]: 1.5
- CLint scaled [2]: 12.7 mL/min/kg
- CLint scaled [4]: 97 mL/min/kg
- bioavailability [5]: 23%
- pIC50 [3]: 6.51

Structure (SMILES): C#CCCCOc1ccc(C(=O)c2cccc(OCCN3CCn4c(ccc(-n5cnc(C)c5)c4=O)C3=O)c2)cc1
- Activity [6]: Active
- Activity [7]: Active
- Activity [8]: inactive
- Activity [9]: inactive
- pIC50 [10]: 6.87
